Several values for one entry are separate records, joined by “and”; a condition that tells them apart may be missing. Equal values may be shown once.
Experiments:
[1] = system: free fatty acids (FFS); assay: influence on the free fatty acids (FFS) in starved (hyperlipacidaemic) animals, hunger lipolysis; assay type: in vivo, rats (Wistar); details: starved
Protocol: Investigations on a total of 260 Wistarrats were conducted with 7-[3-(N-methyl-N-2-hydroxyethyl)-amino-2-hydroxypropyl]-1,3-dimethylxanthine-3-methylpyrazole-5-carboxylate.
Examination of the influence of 7-[3-(N-methyl-N-2-hydroxy-
ethyl)-amino-2-hydroxypropyl]-1,3-dimethylxanthine-3-methyl-
pyrazole-5-carboxylate on the serum fatty acids (FFS) of
Male Rats, starve for 17 hours
Dose: 100 mg/kg body weight, oral by esophagus probe,
Blood removal: 1 hour after application
pyrazole-5-carboxylate on the free fatty acids (FFS) in
starved animals 1 hour after application
Comparative examinations of the influence of 7-[3-(N-methyl-
carboxylic acid on the free fatty acids (FFS) in starved
animals 1 hour after application
pyrazole-5-carboxylic acid on the free fatty acids (FFS)
in starved animals 6 hours after application

[2] = system: serum triglycerides (TG); assay: influence on the serum triglycerides (TG) in normal animals; assay type: in vivo, Rats (Wistar); details: for TG: starve for 5 hours; for TG, mean (x): 1 hour
Protocol: Rats, starve for 5 hours
40 mg/kg body weight of active principle according to
the invention, oral by esophagus probe 1 hour before
12 mg/kg body weight of 3-methylpyrazole-5-carboxylic
acid, equim. dosage, 1 hour before removal of blood
Dose: 10 mg/kg body weight of active principle according to the
invention, oral by esophagus probe 1 hour before blood removal
Dose: 3 mg/kg body weight of 3-methylpyrazole-5-carboxylic acid,
equim. dosage, oral by esophagus probe 1 hour before

[3] = system: free fatty acids (FFS); assay: influence on the free fatty acids (FFS) after repeated application once daily for 4 days; assay type: in vivo, Rats male (Wistar); details: for free fatty acids (FFS): individual animals, 15 mg/kg
Protocol: Rats male, repeated application once daily for 4 days,
on the 4th day groups of 10 animals were killed at
intervals of 30 minutes, 1 hour and 2 hours after the
last application by ether narcosis and heart puncture.
10 controls were given esophagus probe, animals starved
for 17 hours before killing (cf. FIG. 4)
7-[3-(N-methyl-2-hydroxyethyl)-amino-2-
hydroxypropyl]-1,3-dimethylxanthine-3-
methylpyrazole-5-carboxylate 50 mg/kg peroral
3-methylpyrazole-5-carboxylic acid (3-MPC)
eq./kg 15 mg/kg peroral

[4] = starving rats; David L. Smith et al; cited from earlier work
[5] = system: free fatty acids and triglycerides in the serum; details: cited from earlier work
[6] = free acid, known per se; cited from earlier work

What does the source list for `Cc1cc(C(=O)O)[nH]n1` [3-methylpyrazole-5-carboxylic acid, reference compound]?
FFS ([1]; Table 5, individual animals, 1 hour after application, 15 mg/kg): 0.41 μval/ml and 0.43 μval/ml and 0.59 μval/ml and 0.52 μval/ml and 0.67 μval/ml and 0.37 μval/ml and 0.40 μval/ml and 0.54 μval/ml and 0.44 μval/ml; FFS, mean ([1]; Table 5, mean, n=10, 1 hour after application, 15 mg/kg, control 1.08, p<0.001): 0.47 μval/ml; FFS ([1]; Table 6, individual animals, 6 hours after application, 15 mg/kg p.o., 15 mg/kg): 0.51 μval/ml and 0.50 μval/ml and 0.67 μval/ml and 0.64 μval/ml and 0.56 μval/ml and 0.53 μval/ml and 0.61 μval/ml and 0.85 μval/ml and 0.44 μval/ml and 0.54 μval/ml and 0.58 μval/ml and 1.00 μval/ml and 0.47 μval/ml and 1.46 μval/ml and 1.10 μval/ml; FFS, mean (x) ([1]; Table 6, mean, n=21, 6 hours after application, 15 mg/kg p.o., control 0.86, p<0.01): 0.69 μval/ml; TG ([2]; Table 7, individual animals, 12 mg/kg (equim. dosage) 1 hour before removal of blood, 12 mg/kg): 90.2 mg % and 87.3 mg % and 58.7 mg % and 107.4 mg % and 51.6 mg % and 55.8 mg % and 71.6 mg % and 60.1 mg % and 68.7 mg %; TG, mean (x) ([2]; Table 7, mean, 12 mg/kg (equim. dosage), control x = 66.4): 74.1 mg %; TG ([2]; Table 8, individual animals, 3 mg/kg (equim. dosage) oral 1 hour before blood removal, 3 mg/kg): 137.4 mg % and 87.3 mg % and 70.2 mg % and 74.4 mg % and 50.1 mg % and 43.0 mg % and 57.2 mg % and 51.5 mg % and 32.9 mg % and 73.0 mg %; TG, mean (x) ([2]; Table 8, mean, 3 mg/kg (equim. dosage) oral, control x = 86.3, p>0.05→Ko., p>0.05→xant.-carbox.): 67.7 mg %; effect on serum triglyceride level of normal animals ([2]; equimolecular doses of the free acid, result in words): relatively weak, i.e. insignificant effect; free fatty acids (FFS) ([3]; 15 mg/kg p.o. 4 × appl., 30' after last application): 0.66 μval/ml plasma and 0.59 μval/ml plasma and 0.53 μval/ml plasma and 0.91 μval/ml plasma and 0.56 μval/ml plasma and 0.95 μval/ml plasma and 1.02 μval/ml plasma and 0.81 μval/ml plasma and 0.80 μval/ml plasma and 0.60 μval/ml plasma; free fatty acids (FFS) ([3]; 15 mg/kg p.o. 4 × appl., 1 h after last application): 0.75 μval/ml plasma and 0.73 μval/ml plasma and 0.95 μval/ml plasma and 0.96 μval/ml plasma and 1.03 μval/ml plasma and 1.16 μval/ml plasma and 1.08 μval/ml plasma and 0.84 μval/ml plasma and 1.24 μval/ml plasma and 0.92 μval/ml plasma; free fatty acids (FFS) ([3]; 15 mg/kg p.o. 4 × appl., 2 h after last application): 0.62 μval/ml plasma and 0.59 μval/ml plasma and 0.51 μval/ml plasma and 0.70 μval/ml plasma and 0.88 μval/ml plasma and 0.84 μval/ml plasma and 1.27 μval/ml plasma and 1.20 μval/ml plasma and 0.86 μval/ml plasma; free fatty acids (FFS), mean (x9) ([3]; mean of 9, 15 mg/kg p.o. 4 × appl., 2 h after last application, control 1.27, p<0.001): 0.83 μval/ml plasma; free fatty acids (FFS), mean (x10) ([3]; 15 mg/kg p.o. 4 × appl., 30' after last application, control 1.27, p<0.001): 0.74 μval/ml plasma; free fatty acids (FFS), mean (x10) ([3]; 15 mg/kg p.o. 4 × appl., 1 h after last application, control 1.27, p<0.001): 0.97 μval/ml plasma; weakening of effect on free fatty acid content by pretreatment ([3]; repeated application, result in words): able to confirm the results of these tests; hypoglycaemic activity relative to tolbutamide [4]: two hundred times; tachyphylaxia ([5]; observed by the authors, limits its suitability for therapeutic application): tachyphylaxia; effect of pretreatment on the free fatty acid content of the plasma ([5]; pretreatment 4 to 5 days, Gerritzen et al): weakens the effect on the free fatty acid content of the plasma; level of free fatty acids and triglycerides in the serum ([5]; small doses, starving normal rats): reduces the level of free fatty acids and triglycerides in the serum; lipid-lowering activity [6]: shows corresponding activity
